The text below walks through data of patent US20220370440A1 (Lead Discovery Center GmbH, priority 2018, published 2022).

Structures are written as SMILES.

Assay [1] has as its target Her2 Exon 20 INSYVMA Ba/F3 (Homo sapiens, UniProt P04626, DUP772-775, cells depend on it). Kind of assay: Her2 Exon 20 INSYVMA Ba/F3 CellTiter-Glo. In kind it is cell-based. As to conditions: CellTiter-Glo, 72 h, read-out: Her2 Exon 20 INSYVMA Ba/F3 CTG IC50. How it is done: (§1) 2. Measurement of Cellular Activity
(§2) The CellTiter-Glo Luminescent Cell Viability Assay (Promega) is a homogeneous method of determining the number of viable cells in culture. It is based on quantification of ATP, indicating the presence of metabolically active cells. Cells are seeded on day 1 at cell numbers that assure assay linearity and optimal signal intensity. After incubation for 24 h in humidified chambers at 37° C. and 5% CO2, compounds in DMSO are added at different concentrations. Cells are further incubated for 72 h at 37° C. and 5% CO2. Cells treated with the compound vehicle DMSO are used as positive controls and cells treated with 10 μM Staurosporine serve as negative controls. At day 5 the CellTiter Glo Reagent is prepared according to the instructions of the kit (Promega Inc.): Reagent is mixed 1:1 with cell culture medium. Thereon, mixture and assay plates are equilibrated at room temperature for 20 min. Equal volumes of the reagent-medium-mixture is added to the volume of culture medium present in each well. The plates are mixed at ˜200 rpm for 2 minutes on an orbital shaker. The microplates are then incubated at room temperature for 10 minutes for stabilization of the luminescent signal. Following incubation the luminescence is recorded on a Victor microplate reader (Perkin Elmer) using a 200 ms integration time. The data is then analyzed with Excel using the XLFIT Plugin (dose response Fit 205) for IC50-determination. As quality control the Z′-factor is calculated from 16 positive and negative control values. Only assay results showing a Z′-factor ≥0.5 are used for further analysis.
(§3) Inhibition is indicated as IC50 [nM] (“−”=not measured). Compounds having an activity designated as “A” provided an IC50≤100 nM; compounds having an activity designated as “B” provided an 100 nM<IC50≤500 nM; compounds having an activity designated as “C” provided an 500 nM<IC50≤1000 nM; compounds having an activity designated as “D” provided an 1000 nM<IC50≤10000 nM; and compounds having an activity designated as “E” provided an IC50>10000 nM.
Background: Cellular ATP, detected with luciferase, serves as a proxy for viable cell number.

Another assay concerns the target EGFR T790ML858R (Homo sapiens, UniProt P00533, L858R/T790M). Kind of assay: EGFR T790ML858R Lance assay. The assay is classed as biochemical. How it is done: (§4) Inhibition is indicated as […] [nM] (“−”=not measured). Compounds having an activity designated as “A” provided an IC50≤100 nM; compounds having an activity designated as “B” provided an 100 nM<IC50≤500 nM; compounds having an activity designated as “C” provided an 500 nM<IC50≤1000 nM; compounds having an activity designated as “D” provided an 1000 nM<IC50≤100000 nM; and compounds having an activity designated as “E” provided an IC50>10000 nM.

Another assay concerns A431. The experiment in a line: A431 CellTiter-Glo. Particulars: Homo sapiens, A-431; 72 h compound incubation; read-out: A431 CTG IC50. In kind it is cell-based. How it is done:
as §1, §2, §4

In a further assay the target is T1, HER2 INS YVMA (Homo sapiens, UniProt P04626, INS775YVMA).
T1 construct: purchased DPF
Kind of assay: Lance Kinase Activity Assay, HER2 INS YVMA (Her2 Exon 20 INSYVMA Lance). Particulars: biochemical Lance assay. In kind it is biochemical. How it is done: 1. Measurement of HER2 INS YVMA Kinase Activity
This protocol describes how the Lance Kinase Activity Assay was performed to determine IC50 values of compounds of general formula (I) against HER2 INS YVMA. The principle behind this enzymatic assay is based upon the phosphorylation of the Ulight-peptide substrate. It is detected by using a specific EU-labeled anti-phospho peptide antibody. The binding of the Eu labeled anti-phospho peptide antibody to the phosphorylated ULight labeled peptide gives rise to a FRET-signal.
Binding of an inhibitor to the kinase prevents phosphorylation of the Ulight-substrate, resulting in a loss of FRET. In table 2 is summarized the relevant information for the LANCE assay.
The compounds of general formula (I) summarized in Table 3 were serial diluted from a 10 mM DMSO stock solution 1:3 over 8 steps in a total volume of 20 μl.
For every sample, 8 μl of kinase-substrate mix was transferred into a suitable assay plate (e.g. Corning #3673). Compound was added via pintool transfer (10 nl/well) using a Biomek FX robot (BeckmanCoulter). Reaction was started by addition of 2 μl ATP working solution and mixed using variomag teleshaker (Thermo Fischer Scientific). After 1 h incubation at room temperature the reaction was stopped with 10 μl detection mix containing the Eu-labeled phosphospecific antibody and 10 mM EDTA. After a second incubation period of 1 h at room temperature the FRET signal was measured at 340 nm excitation, 665 nm and 615 nm emission (for the ULight-substrate and Eu-AB, respectively) with an Envision spectrophotometer (Perkin Elmer, Waltham, Mass., USA) with 50 μs delay and 300 μs integration time. IC50 values were determined from the sigmoidal dose response curves with the software Quattro Workflow (Quattro GmbH, Munich, Germany).

Assay [2] deals with EGFR Exon 20 INSNPH Ba/F3 (Homo sapiens, UniProt P00533, DUP771-773, cells depend on it). Kind of assay: EGFR Exon 20 INSNPH Ba/F3 CellTiter-Glo. The assay is classed as cell-based. Particulars: CellTiter-Glo, 72 h, read-out: EGFR Exon 20 INSNPH Ba/F3 CTG IC50. How it is done:
as §1, §2, §3

The next assay concerns H1975. The experiment in a line: H1975 CellTiter-Glo. In kind it is cell-based. Particulars: Homo sapiens, NCI-H1975; 72 h compound incubation; read-out: H1975 CTG IC50. How it is done: as §1, §2, §4
In a further assay the target is EGFR wt (Homo sapiens, UniProt P00533). The experiment in a line: EGFR wt Lance assay. In kind it is biochemical. How it is done: as §4

One may read the IC50 as the concentration that gives 50% inhibition.

Sequence of Her2 Exon 20 INSYVMA Ba/F3 (P04626 with tags, fused parts or gaps DUP772-775): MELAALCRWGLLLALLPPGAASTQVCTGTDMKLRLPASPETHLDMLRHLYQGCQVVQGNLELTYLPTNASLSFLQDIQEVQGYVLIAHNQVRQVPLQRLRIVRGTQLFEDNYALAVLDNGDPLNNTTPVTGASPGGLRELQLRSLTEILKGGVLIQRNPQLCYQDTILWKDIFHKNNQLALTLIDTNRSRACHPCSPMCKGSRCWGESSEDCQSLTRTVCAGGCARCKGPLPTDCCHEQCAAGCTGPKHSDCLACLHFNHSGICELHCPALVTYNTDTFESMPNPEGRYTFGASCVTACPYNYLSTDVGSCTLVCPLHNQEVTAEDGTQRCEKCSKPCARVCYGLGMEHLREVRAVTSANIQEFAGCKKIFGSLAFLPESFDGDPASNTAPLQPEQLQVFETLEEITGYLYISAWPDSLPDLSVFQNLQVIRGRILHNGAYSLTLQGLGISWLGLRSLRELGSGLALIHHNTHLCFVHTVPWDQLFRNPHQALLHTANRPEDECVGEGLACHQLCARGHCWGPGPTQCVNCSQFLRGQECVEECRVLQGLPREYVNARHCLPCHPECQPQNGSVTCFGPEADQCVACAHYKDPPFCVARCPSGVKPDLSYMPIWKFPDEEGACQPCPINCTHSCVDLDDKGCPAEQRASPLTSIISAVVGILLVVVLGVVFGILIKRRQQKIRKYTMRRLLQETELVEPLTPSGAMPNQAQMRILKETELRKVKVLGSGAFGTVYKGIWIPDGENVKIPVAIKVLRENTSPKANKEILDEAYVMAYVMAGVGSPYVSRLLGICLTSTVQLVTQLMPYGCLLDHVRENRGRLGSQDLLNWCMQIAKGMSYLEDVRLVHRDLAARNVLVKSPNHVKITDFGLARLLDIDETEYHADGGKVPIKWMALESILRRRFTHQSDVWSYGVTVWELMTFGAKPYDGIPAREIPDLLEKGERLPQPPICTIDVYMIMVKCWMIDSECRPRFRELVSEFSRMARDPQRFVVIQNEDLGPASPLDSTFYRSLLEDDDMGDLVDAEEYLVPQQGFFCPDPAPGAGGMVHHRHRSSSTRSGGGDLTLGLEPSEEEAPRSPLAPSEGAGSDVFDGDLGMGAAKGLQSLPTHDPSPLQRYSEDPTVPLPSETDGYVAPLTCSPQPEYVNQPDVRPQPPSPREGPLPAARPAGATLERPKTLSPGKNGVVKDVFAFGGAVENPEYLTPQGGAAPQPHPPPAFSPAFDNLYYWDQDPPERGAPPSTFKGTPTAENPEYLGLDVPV
T1 sequence (P04626 with tags, fused parts or gaps INS775YVMA): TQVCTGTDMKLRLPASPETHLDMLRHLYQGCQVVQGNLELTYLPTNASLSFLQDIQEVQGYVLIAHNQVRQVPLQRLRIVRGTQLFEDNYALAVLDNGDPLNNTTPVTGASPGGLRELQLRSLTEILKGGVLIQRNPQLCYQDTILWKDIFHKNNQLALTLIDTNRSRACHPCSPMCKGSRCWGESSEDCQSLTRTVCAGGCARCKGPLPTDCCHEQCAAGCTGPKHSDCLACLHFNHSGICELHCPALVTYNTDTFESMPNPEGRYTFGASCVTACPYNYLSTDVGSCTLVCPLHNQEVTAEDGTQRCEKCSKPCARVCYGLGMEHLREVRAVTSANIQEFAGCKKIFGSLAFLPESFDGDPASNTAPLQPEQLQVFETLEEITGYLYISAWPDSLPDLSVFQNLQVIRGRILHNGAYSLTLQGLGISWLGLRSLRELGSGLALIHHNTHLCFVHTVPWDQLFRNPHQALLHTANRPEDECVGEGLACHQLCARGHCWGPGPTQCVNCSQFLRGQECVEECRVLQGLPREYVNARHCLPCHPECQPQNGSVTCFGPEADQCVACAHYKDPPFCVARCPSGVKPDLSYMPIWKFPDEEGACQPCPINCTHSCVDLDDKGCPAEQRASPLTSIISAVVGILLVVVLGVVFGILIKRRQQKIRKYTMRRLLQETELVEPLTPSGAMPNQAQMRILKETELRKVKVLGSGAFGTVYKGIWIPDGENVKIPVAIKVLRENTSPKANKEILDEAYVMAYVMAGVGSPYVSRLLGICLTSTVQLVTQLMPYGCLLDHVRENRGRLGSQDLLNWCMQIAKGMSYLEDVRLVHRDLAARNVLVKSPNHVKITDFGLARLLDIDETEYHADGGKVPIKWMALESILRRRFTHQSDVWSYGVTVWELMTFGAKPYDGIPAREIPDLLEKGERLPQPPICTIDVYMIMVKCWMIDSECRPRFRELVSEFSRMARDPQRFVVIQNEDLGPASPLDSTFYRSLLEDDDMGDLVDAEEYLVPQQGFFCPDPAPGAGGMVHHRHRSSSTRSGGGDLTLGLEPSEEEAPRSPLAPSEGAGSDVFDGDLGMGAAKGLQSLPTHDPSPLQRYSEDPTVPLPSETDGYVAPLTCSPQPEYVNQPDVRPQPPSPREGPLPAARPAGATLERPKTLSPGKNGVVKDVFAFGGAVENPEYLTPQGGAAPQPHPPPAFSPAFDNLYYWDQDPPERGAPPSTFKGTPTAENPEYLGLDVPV
Sequence of EGFR Exon 20 INSNPH Ba/F3 (P00533 with tags, fused parts or gaps DUP771-773): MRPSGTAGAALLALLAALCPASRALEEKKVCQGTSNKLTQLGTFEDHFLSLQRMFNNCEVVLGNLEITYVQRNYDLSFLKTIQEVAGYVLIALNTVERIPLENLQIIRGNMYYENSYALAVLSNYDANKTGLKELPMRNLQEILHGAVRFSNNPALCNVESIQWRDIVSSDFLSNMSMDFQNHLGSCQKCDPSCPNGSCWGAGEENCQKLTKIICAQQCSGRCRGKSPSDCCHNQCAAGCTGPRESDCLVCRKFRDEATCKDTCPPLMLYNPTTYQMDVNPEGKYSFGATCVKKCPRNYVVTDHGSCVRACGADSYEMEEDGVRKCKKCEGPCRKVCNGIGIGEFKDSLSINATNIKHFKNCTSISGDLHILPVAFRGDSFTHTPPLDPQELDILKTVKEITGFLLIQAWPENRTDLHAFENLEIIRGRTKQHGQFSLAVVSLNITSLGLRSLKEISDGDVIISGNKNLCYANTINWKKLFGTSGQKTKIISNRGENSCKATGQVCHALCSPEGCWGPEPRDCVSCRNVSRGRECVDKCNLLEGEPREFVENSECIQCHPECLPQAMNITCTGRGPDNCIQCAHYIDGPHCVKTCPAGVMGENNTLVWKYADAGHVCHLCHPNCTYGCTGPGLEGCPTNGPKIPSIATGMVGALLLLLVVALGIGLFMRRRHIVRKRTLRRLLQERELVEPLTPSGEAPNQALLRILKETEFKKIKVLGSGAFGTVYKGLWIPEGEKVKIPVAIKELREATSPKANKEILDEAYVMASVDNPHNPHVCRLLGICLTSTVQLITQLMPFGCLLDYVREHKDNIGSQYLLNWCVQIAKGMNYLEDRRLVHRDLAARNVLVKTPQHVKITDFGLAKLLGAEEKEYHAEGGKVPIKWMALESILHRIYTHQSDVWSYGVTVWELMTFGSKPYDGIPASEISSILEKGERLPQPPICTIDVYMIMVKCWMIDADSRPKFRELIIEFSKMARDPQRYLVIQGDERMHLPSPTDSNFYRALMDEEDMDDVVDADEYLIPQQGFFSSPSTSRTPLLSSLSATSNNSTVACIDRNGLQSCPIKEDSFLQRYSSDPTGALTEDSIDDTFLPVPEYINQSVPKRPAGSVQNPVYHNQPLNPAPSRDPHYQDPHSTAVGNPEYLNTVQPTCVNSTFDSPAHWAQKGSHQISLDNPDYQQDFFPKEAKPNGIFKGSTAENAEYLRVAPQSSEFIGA
Sequence of EGFR T790ML858R (P00533 25-1210 T790M/L858R): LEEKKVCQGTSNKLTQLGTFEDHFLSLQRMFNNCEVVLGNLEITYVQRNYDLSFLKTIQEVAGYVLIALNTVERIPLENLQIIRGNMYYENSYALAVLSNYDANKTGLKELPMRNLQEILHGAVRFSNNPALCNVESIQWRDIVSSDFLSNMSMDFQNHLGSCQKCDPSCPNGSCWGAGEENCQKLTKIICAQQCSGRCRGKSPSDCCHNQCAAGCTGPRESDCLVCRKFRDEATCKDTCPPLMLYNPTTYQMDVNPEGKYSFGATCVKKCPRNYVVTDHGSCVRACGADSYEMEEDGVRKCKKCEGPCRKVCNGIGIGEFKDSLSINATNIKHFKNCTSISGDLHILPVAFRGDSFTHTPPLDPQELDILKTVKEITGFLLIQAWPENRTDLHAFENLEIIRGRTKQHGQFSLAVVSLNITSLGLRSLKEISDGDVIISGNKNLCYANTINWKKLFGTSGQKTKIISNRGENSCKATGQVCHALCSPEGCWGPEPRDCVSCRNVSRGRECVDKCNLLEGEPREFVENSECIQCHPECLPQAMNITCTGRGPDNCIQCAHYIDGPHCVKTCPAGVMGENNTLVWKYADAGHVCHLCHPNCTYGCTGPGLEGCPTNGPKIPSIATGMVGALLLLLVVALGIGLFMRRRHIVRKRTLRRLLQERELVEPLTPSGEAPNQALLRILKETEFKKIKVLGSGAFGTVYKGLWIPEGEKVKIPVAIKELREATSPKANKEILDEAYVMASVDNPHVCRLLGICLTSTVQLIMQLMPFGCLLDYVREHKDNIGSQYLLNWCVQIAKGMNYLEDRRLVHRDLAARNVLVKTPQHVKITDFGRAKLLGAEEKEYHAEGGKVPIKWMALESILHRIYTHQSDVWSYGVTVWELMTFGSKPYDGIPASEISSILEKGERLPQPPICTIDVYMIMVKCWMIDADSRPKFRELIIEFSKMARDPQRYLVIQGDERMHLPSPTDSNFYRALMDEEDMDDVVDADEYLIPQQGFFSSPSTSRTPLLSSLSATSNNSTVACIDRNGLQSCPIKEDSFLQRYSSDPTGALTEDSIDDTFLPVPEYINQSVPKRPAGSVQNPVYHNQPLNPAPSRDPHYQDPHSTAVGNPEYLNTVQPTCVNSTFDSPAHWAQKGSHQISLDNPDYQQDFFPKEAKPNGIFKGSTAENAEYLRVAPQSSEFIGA

On to `C=CC(=O)Nc1cc(-c2c(-c3cccc(C(=O)NCCCN4CCCC4)c3)[nH]c3nccc(Cl)c23)ccc1C` [Example 47, 3-(3-(3-acrylamido-4-methylphenyl)-4-chloro-1H-pyrrolo[2,3-b]pyridin-2-yl)-N-(3-(pyrrolidin-1-yl)propyl)benzamide], for which the GI50 in assay [1] and in assay [2] was 1000 to 10000 nM throughout. Further, the IC50 is not above 100 nM on EGFR T790ML858R; 500 to 1000 nM in the assay with A431; not above 100 nM against HER2 INS YVMA; not above 100 nM with H1975; not above 100 nM at EGFR wt.
As for `C=CC(=O)Nc1cc(-c2c(-c3cccc(C(=O)NCCCN4CCN(CC)CC4)c3)[nH]c3nccc(Cl)c23)ccc1C` [Example 54, 3-(3-(3-acrylamido-4-methylphenyl)-4-chloro-1H-pyrrolo[2,3-b]pyridin-2-yl)-N-(3-(4-ethylpiperazin-1-yl)propyl)benzamide], the GI50 in assay [1] and in assay [2] was 1000 to 10000 nM in each case. Further, the IC50 against EGFR T790ML858R was not above 100 nM; in the assay with A431, 1000 to 100000 nM; at HER2 INS YVMA, 100 to 500 nM; in the assay on H1975, 100 to 500 nM; against EGFR wt, not above 100 nM.
With `C=CC(=O)N1CCCc2ccc(-c3c(-c4ccc(C5CCN(C)CC5)cc4)[nH]c4nccc(Cl)c34)cc21` [Example 87, 1-(7-(4-chloro-2-(4-(1-methylpiperidin-4-yl)phenyl)-1H-pyrrolo[2,3-b]pyridin-3-yl)-3,4-dihydroquinolin-1(2H)-yl)prop-2-en-1-one], the GI50 in assay [1] and in assay [2] was 500 to 1000 nM each time. The IC50 is not above 100 nM against EGFR T790ML858R; 1000 to 100000 nM in the assay with A431; not above 100 nM on HER2 INS YVMA; 100 to 500 nM in the assay with H1975; not above 100 nM at EGFR wt.
For `C=CC(=O)N1CCCc2ccc(-c3c(-c4ccc(CN5CCN(C)CC5)nc4)[nH]c4nccc(Cl)c34)cc21` [Example 89, 1-(7-(4-chloro-2-(6-((4-methylpiperazin-1-yl)methyl)pyridin-3-yl)-1H-pyrrolo[2,3-b]pyridin-3-yl)-3,4-dihydroquinolin-1(2H)-yl)prop-2-en-1-one], the GI50 in assay [1] and in assay [2] was 100 to 500 nM in each case. Besides, the IC50 at EGFR T790ML858R is not above 100 nM; in the assay with A431 it was 500 to 1000 nM; on HER2 INS YVMA, not above 100 nM; with H1975 it was 100 to 500 nM; on EGFR wt it was not above 100 nM.
For the compound `C=CC(=O)N1CCCc2ccc(-c3c(-c4ccc(OCCN5CCCC5)cc4)[nH]c4nccc(Cl)c34)cc21` [Example 90, 1-(7-(4-chloro-2-(4-(2-(pyrrolidin-1-yl)ethoxy)phenyl)-1H-pyrrolo[2,3-b]pyridin-3-yl)-3,4-dihydroquinolin-1(2H)-yl)prop-2-en-1-one], the results for the GI50 in assay [1] and in assay [2] were 500 to 1000 nM and 1000 to 10000 nM, respectively. The IC50 against EGFR T790ML858R is not above 100 nM; with A431, 1000 to 100000 nM; at HER2 INS YVMA, not above 100 nM; in the assay on H1975, 100 to 500 nM; on EGFR wt, not above 100 nM.
In the case of `C=CC(=O)N1CCCc2ccc(-c3c(-c4cccc(OCCN5CCCC5)c4)[nH]c4nccc(Cl)c34)cc21` [Example 94, 1-(7-(4-chloro-2-(3-(2-(pyrrolidin-1-yl)ethoxy)phenyl)-1H-pyrrolo[2,3-b]pyridin-3-yl)-3,4-dihydroquinolin-1(2H)-yl)prop-2-en-1-one], the GI50 in assay [1] and in assay [2] was 1000 to 10000 nM each time. The IC50 is not above 100 nM at EGFR T790ML858R; 1000 to 100000 nM in the assay with A431; not above 100 nM against HER2 INS YVMA; 100 to 500 nM in the assay with H1975; not above 100 nM on EGFR wt.
Take `C=CC(=O)N1CCOc2ccc(-c3c(-c4ccc(OCCN5CCCC5)cc4)[nH]c4nccc(Cl)c34)cc21` [Example 101, 1-(6-(4-chloro-2-(4-(2-(pyrrolidin-1-yl)ethoxy)phenyl)-1H-pyrrolo[2,3-b]pyridin-3-yl)-2H-benzo[b][1,4]oxazin-4(3H)-yl)prop-2-en-1-one]: the GI50 in assay [1] and in assay [2] was 100 to 500 nM each time. Further, the IC50 on EGFR T790ML858R is not above 100 nM; in the assay with A431, 1000 to 100000 nM; on HER2 INS YVMA, not above 100 nM; in the assay on H1975, 100 to 500 nM; against EGFR wt, not above 100 nM.
Regarding `C=CC(=O)N1CCOc2ccc(-c3c(-c4ccc(CN(C)C)cc4)[nH]c4nccc(Cl)c34)cc21` [Example 102, 1-(6-(4-chloro-2-(4-((dimethylamino)methyl)phenyl)-1H-pyrrolo[2,3-b]pyridin-3-yl)-2H-benzo[b][1,4]oxazin-4(3H)-yl)prop-2-en-1-one], the GI50 in assay [1] and in assay [2] was 100 to 500 nM throughout. Further, the half-inhibitory concentration (IC50) was not above 100 nM against EGFR T790ML858R; 1000 to 100000 nM in the assay on A431; not above 100 nM against HER2 INS YVMA; 100 to 500 nM in the assay with H1975; not above 100 nM against EGFR wt.
As for `C=CC(=O)N1CCOc2ccc(-c3c(-c4cccc(OCCN5CCCC5)c4)[nH]c4nccc(Cl)c34)cc21` [Example 103, 1-(6-(4-chloro-2-(3-(2-(pyrrolidin-1-yl)ethoxy)phenyl)-1H-pyrrolo[2,3-b]pyridin-3-yl)-2H-benzo[b][1,4]oxazin-4(3H)-yl)prop-2-en-1-one], the GI50 in assay [1] and in assay [2] was 100 to 500 nM in each case. Further, the IC50 is not above 100 nM against EGFR T790ML858R; 500 to 1000 nM in the assay on A431; not above 100 nM against HER2 INS YVMA; 100 to 500 nM in the assay with H1975; not above 100 nM against EGFR wt.
Regarding `C=CC(=O)N1CCc2ccc(-c3c(-c4ccnc(N5CCN(C)CC5)c4)[nH]c4nccc(OCC)c34)cc21` [Example 105], the GI50 in assay [1] and in assay [2] was 100 to 500 nM each time. For the same compound, the IC50 against EGFR T790ML858R was not above 100 nM; in the assay with A431, 100 to 500 nM; at HER2 INS YVMA, not above 100 nM; with H1975, not above 100 nM; against EGFR wt, not above 100 nM.
Consider `C=CC(=O)Nc1cc(-c2c(-c3ccc(N4CCN(C)CC4)cc3)[nH]c3ncc(C(=O)OC(C)C)c(C)c23)ccc1C` [Example 198, isopropyl 3-(3-acrylamido-4-methylphenyl)-4-methyl-2-(4-(4-methylpiperazin-1-yl)phenyl)-1H-pyrrolo[2,3-b]pyridine-5-carboxylate], for which the IC50 was not above 100 nM against EGFR T790ML858R; 500 to 1000 nM with A431; not above 100 nM against HER2 INS YVMA; 100 to 500 nM in the assay with H1975; not above 100 nM against EGFR wt.
